The nature of test [1]: Luminescence Cell-Based Dose Retest to Confirm Inhibitors of Cancer Stem Cells. [Related pubchem assays (depositor defined):AID2717, AID2721]. It counts as functional. To be noted: Homo sapiens.
Test [2] has as its target T1, Heat shock factor protein 1 (Mus musculus, UniProt P38532).
T1 sequence (P38532 whole entry): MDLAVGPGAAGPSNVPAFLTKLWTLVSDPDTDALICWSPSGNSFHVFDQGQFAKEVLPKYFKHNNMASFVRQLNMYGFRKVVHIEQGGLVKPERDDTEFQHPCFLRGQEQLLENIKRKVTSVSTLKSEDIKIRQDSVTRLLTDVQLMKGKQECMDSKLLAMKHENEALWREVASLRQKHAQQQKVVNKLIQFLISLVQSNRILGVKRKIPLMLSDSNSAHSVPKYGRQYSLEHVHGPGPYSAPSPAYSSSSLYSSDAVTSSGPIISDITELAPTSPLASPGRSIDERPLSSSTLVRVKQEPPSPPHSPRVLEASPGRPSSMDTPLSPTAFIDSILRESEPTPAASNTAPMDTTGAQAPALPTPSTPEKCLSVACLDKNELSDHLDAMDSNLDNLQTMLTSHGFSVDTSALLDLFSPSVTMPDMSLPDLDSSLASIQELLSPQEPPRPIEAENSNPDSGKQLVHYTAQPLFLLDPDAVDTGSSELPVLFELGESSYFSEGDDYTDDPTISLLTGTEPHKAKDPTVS
Nature of the test: enhancement of HSF1-driven luciferase signal – cell-based, NIH3T3, luminescence, dose retest, confirmation (AID 435004).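 Further: stress induced by proteasome inhibitor MG132 added 30 min after compound; luciferase reporter driven by HSF1 response element in NIH3T3 cells; actives raise luminescence as potentiators of the MG132 stress response.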 It counts as functional.

The nature of test [3]: viability of PTEN-deleted HCT116 cells – cell-based, HCT116 PTEN knockout, dose response (AID 1047).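 Further: HCT116 colon tumor cells with PTEN knocked out; cells exposed to compound for 60 hours before readout; potency for loss of cell viability measured by luminescence.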 The class given is functional.
Test [4] in a line: viability of HCT116 lacking mutant beta-catenin – cell-based, human colon tumor, dose response (AID 1045).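 Further: HCT116 colon tumor cells with beta catenin knocked out; cells exposed to compound for 60 hours.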 The class given is functional.
The nature of test [5]: Trypanosoma cruzi growth suppression in host cells – NIH3T3 host cells, beta-gal luminescence, confirmation (AID 2044).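 Further: intracellular parasites grown in NIH/3T3 mouse fibroblasts as host cells; luminescent beta-galactosidase reporter signal from transgenic T. cruzi replicating inside host cells; inhibitors lower the luminescence signal.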 It counts as functional, cell-based.
Test [6] can be described thus: NIH3T3 cell viability loss – ATP luminescence, mouse fibroblasts, counter-screen, dose response (AID 2010).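 Further: cells exposed to compound for about 90 hours before reading.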 It counts as functional, cell-based. In general terms: The purpose of a counterscreen is to sort out artefacts and off-target activity.
Test [7] deals with T2, Corticotropin-releasing factor receptor 2/Corticotropin-releasing factor-binding protein (Homo sapiens, UniProt P24387+Q13324).
T2 sequence (Q13324 whole entry): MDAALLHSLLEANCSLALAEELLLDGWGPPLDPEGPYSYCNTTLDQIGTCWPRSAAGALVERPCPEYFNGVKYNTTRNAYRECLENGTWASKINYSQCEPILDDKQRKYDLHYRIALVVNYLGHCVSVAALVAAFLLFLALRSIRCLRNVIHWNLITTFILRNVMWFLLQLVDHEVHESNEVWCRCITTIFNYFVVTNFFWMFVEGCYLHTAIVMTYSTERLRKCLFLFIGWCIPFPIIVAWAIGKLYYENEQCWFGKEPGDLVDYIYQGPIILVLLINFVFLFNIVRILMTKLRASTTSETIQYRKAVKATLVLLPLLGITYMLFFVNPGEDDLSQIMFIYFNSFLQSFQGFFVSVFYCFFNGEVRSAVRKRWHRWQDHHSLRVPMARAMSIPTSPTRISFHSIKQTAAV
T2 sequence (P24387 whole entry): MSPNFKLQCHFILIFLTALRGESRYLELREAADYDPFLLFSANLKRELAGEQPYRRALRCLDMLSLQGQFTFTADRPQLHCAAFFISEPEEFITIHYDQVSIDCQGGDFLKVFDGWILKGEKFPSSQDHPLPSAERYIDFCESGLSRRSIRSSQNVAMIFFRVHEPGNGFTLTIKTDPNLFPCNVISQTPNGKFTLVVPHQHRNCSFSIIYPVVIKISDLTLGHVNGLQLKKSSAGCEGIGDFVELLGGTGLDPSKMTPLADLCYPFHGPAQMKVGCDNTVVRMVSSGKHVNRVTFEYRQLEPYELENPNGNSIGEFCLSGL
Nature of the test: activators of CRF receptor 2 with binding protein – uHTS hits, confirmation (AID 602473). The class given is functional. To be noted: read-out: EC50_Mean.

The target of a further test is Cytochrome P450 2C19 (Homo sapiens, UniProt P33261). Nature of the test: Cytochrome panel assay with activity outcomes. Panel member name: p450-cyp2c19 Compounds with AC50 equal or less than 10 uM are considered active. The class given is functional. To be noted: read-out: AC50.
Sequence of Cytochrome P450 2C19 (P33261 whole entry): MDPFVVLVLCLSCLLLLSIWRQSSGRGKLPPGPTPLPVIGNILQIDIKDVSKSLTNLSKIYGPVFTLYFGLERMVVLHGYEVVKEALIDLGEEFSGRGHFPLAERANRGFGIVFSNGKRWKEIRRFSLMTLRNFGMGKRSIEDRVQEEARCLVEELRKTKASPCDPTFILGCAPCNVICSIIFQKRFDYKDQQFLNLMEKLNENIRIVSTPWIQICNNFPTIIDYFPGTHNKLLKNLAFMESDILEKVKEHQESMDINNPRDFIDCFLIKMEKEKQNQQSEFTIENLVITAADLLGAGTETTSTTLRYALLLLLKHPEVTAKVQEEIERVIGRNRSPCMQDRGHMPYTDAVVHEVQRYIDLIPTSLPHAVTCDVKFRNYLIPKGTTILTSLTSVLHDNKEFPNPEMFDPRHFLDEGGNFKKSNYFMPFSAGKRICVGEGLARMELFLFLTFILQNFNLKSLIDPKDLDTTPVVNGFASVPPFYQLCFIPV
In test [8] the target is T3, Replicative DNA helicase DnaB (Mycobacterium tuberculosis, UniProt P9WMR3).
T3 sequence (P9WMR3 whole entry): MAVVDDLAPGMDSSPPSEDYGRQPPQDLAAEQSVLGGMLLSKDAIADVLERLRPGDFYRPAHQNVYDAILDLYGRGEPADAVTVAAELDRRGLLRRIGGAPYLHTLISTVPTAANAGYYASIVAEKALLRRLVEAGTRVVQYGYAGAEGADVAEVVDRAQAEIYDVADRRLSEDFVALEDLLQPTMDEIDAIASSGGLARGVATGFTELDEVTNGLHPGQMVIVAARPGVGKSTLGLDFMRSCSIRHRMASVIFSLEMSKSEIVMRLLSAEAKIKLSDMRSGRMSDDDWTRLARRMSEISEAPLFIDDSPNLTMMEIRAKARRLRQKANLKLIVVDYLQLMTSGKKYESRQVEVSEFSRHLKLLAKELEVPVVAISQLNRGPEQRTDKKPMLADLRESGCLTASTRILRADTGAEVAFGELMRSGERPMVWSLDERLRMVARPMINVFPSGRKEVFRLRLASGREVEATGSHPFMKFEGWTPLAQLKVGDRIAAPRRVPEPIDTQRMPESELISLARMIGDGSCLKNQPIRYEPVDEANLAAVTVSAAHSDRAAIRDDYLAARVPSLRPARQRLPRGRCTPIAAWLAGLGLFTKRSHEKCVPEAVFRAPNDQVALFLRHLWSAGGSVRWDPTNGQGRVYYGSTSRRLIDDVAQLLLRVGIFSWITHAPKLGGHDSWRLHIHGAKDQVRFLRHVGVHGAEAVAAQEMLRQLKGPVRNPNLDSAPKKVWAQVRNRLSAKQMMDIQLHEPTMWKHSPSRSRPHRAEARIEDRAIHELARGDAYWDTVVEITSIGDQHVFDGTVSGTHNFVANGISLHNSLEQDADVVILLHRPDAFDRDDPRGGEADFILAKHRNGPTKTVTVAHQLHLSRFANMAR
The test is described as follows: DnaB intein splicing inhibitors, dose response, biochemical, cell-free fluorescence (AID 449749). It counts as functional.

Another test addresses T4, Protein RecA (Mycobacterium tuberculosis, UniProt P9WHJ3).
T4 sequence (P9WHJ3 whole entry): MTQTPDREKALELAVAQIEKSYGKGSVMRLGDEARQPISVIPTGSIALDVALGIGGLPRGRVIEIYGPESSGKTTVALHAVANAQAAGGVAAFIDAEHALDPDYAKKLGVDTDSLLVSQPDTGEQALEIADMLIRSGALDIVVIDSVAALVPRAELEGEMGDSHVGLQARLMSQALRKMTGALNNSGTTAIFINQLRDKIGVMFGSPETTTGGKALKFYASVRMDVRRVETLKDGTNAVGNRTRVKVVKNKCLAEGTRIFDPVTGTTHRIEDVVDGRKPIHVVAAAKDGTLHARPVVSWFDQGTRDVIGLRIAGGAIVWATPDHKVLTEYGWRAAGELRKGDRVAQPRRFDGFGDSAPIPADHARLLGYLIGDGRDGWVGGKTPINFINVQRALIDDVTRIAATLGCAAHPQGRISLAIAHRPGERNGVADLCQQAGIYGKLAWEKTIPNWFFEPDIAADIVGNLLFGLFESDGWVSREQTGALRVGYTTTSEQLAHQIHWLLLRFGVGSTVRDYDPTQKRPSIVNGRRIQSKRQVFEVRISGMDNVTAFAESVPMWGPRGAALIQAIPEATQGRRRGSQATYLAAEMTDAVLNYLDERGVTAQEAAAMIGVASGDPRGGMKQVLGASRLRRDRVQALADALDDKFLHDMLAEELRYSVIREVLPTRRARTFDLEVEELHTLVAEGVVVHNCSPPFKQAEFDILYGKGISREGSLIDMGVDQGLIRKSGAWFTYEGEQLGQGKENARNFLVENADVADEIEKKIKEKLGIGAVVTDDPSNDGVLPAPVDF
Nature of the test: Fluorescence Cell-Free Homogeneous Dose Retest to Identify Inhibitors of RecA-Intein Splicing Activity. [Related pubchem assays (depositor defined):AID2097, AID2223, AID489010, AID492950]. The class given is functional.

A further test has as its target Cytochrome P450 2D6 (Homo sapiens, UniProt P10635).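 Further: CYP2D6 member of a cytochrome P450 panel assay.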
The target of another test is T5, Cytochrome P450 1A2 (Homo sapiens, UniProt P05177).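 Further: PubChem cytochrome P450 panel assay, CYP1A2 panel member.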
T5 sequence (P05177 whole entry): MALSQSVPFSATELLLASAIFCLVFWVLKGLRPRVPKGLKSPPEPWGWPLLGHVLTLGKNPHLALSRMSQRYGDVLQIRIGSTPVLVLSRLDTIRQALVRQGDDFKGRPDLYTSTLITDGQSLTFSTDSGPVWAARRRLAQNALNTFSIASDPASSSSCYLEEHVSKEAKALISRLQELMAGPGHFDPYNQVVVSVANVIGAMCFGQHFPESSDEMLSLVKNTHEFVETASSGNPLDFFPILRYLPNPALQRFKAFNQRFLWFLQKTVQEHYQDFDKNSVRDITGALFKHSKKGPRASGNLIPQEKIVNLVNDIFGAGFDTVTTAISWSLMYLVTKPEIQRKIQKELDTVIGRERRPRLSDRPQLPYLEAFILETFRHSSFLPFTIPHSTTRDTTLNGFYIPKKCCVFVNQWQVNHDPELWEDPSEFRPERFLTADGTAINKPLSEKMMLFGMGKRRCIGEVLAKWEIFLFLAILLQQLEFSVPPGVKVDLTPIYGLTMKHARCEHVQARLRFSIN

The next test deals with Cytochrome P450 3A4 (Homo sapiens, UniProt P08684).
Sequence of Cytochrome P450 3A4 (P08684 whole entry): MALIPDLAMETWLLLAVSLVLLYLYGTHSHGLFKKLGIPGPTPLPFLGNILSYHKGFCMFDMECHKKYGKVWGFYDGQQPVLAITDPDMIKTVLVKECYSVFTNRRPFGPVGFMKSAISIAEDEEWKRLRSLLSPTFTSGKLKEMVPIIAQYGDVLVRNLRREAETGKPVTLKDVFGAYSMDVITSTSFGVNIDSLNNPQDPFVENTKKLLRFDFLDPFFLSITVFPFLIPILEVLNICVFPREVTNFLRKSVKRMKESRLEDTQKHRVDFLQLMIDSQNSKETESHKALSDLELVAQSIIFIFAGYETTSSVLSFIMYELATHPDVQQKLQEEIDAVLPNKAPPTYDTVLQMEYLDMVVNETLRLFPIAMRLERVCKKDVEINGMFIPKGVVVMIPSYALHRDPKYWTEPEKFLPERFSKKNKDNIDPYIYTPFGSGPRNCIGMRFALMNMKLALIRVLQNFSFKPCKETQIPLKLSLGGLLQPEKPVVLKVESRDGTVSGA
The next test addresses Cytochrome P450 2C9 (Homo sapiens, UniProt P11712).

The source made the active and inactive calls. Where only a bound is given, the exact number is not on record here.

As usually defined, the AC50 is the midpoint of the concentration-response curve, whichever way the signal moves.

Sequence of Cytochrome P450 2D6 (P10635 whole entry): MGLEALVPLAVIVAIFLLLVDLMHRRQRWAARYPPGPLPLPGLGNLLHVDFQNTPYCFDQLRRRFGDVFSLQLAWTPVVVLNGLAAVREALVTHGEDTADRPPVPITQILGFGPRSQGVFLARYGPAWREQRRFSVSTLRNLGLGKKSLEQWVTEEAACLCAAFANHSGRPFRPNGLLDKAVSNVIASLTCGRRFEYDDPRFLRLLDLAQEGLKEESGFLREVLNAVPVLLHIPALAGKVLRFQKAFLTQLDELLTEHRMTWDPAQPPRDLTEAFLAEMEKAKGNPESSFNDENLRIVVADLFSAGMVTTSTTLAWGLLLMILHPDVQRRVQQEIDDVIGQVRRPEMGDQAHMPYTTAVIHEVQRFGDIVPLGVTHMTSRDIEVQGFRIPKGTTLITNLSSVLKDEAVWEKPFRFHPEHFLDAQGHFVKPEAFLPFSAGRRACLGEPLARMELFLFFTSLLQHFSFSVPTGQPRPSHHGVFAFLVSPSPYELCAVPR
Sequence of Cytochrome P450 2C9 (P11712 whole entry): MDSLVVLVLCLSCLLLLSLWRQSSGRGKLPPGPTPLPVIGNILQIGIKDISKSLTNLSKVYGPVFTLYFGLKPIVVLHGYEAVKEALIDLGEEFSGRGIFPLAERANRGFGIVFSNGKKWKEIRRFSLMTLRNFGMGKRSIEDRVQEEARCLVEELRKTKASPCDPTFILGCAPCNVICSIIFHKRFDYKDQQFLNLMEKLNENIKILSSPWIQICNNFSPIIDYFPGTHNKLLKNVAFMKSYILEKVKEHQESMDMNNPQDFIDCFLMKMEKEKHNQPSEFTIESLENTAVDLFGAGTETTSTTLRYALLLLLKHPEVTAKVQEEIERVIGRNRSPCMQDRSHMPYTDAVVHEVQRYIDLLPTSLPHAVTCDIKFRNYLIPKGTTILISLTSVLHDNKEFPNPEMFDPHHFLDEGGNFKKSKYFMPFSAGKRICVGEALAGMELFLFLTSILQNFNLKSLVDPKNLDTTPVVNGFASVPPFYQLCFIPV

For the compound `Clc1ccc(CO/N=C/c2c(-c3ccccc3)nc3n2CCS3)c(Cl)c1`, the AC50 in test [1] is 2.22 µM (active). Moreover, the EC50 in [2] is > 260 µM (inactive).

For `CCOC(=O)C1=C(N)Oc2c(c(O)nc3ccccc23)C1c1ccccc1` (configuration not stated), the EC50 is 53.5 µM (active) in [3] and 94.3 µM (active) in [4].

As for `O=C1/C(=C\c2ccc(Br)o2)Cc2ccccc21`, the EC50 in test [2] was 27.6 µM (active).

Consider `Cc1ccc(-c2nc(NC(=O)c3ccc(S(=O)(=O)N(CCC#N)CCC#N)cc3)sc2-c2ccccc2)cc1`, for which the EC50 is 2.02 µM (active) in [5], 17 µM (active) in [3], > 60 µM (not active) in test [6] and 17.3 µM (active) in test [4].

For the compound `O=C(OCc1csc(-c2ccccc2)n1)c1cccs1`, the EC50 in test [2] is > 260 µM (inactive).

Turning to `CS(=O)(=O)Nc1cccc(C2=NN(C(=O)CCCC(=O)O)C(c3cccs3)C2)c1` (configuration not stated), in test [2], the EC50 was > 260 µM (inactive).

With `CCOC(=O)C1=NN(C(=O)c2ccccc2)C(O)(c2ccc(C)cc2)C1` (configuration not stated), the EC50 was > 260 µM (inactive) in [2] and 13.5 µM (active) in test [7].

For `COc1cccc(OCc2ccc(Cl)cc2)c1C#N`, the EC50 in test [2] was > 260 µM (inactive).

For the compound `FC(F)(F)c1nnc(-c2ccccc2)nc1Sc1ccccc1`, the EC50 in [3] was 18.7 µM (active); in test [4] it was 17.3 µM (active); in test [2], 4.22 µM (inconclusive); at Protein RecA, 9.56 µM (active). Further, the values for the half-maximal activity concentration (AC50) (at Cytochrome P450 2C19; in test [8]) were 0.00355 µM (inconclusive) and 19.3 µM (active), respectively.

With `C=CCn1c(=O)c2ccccc2n2c(SCC(=O)Nc3sc(C)c(CC)c3C(=O)OCC)nnc12`, the EC50 in test [2] is > 260 µM (inactive).

Regarding `O=P(Nc1ccccc1)(Nc1ccccc1)Oc1cccc(Cl)c1`, the EC50 was 134 µM (active) in test [3] and 239 µM (active) in [4]. Besides, the concentration at half-maximal activity (AC50) at Cytochrome P450 2D6 and at Cytochrome P450 1A2 was 15.8 µM (inconclusive) each time.

As to `COc1cccc(-n2nc(C#N)c(Cl)cc2=O)c1`, the results for the EC50 (in [2]; on Protein RecA) were 10.7 µM (active) and 4.38 µM (active), respectively. In addition, in test [8], the AC50 is 2.49 µM (active).

As for `CC1=CC(C)(C)N=C(S)N1c1cccc(C)c1`, the EC50 in [2] was > 260 µM (inactive). Also, the concentration at half-maximal activity (AC50) on Cytochrome P450 2D6 is 6.31 µM (inconclusive); on Cytochrome P450 3A4 it was 25.1 µM (inconclusive); at Cytochrome P450 2C9 it was 3.55 µM (inconclusive).

(Values after ChEMBL document CHEMBL1201862, “PubChem BioAssay data set” (2004).)
